Among the test systems are HOP-92 NSCLC; HS 578T breast; MALME-3M melanoma; MOLT-4 leukemia; NCI-H226 lung; NCI/ADR-RES ovarian; SK-MEL-5 melanoma; UACC-62 melanoma; MDA-MB-435; T-47D breast.
Holding throughout (assay): DTP human tumour cell line panel, 48 h

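Values below derive from 48-hour exposures of cells grown in 96-well plates, with endpoints linearly interpolated between the two concentrations bracketing the appropriate inhibition level. GI50: concentration for 50% inhibition of growth. At the TGI there is no net growth.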

For `NC1=C(/C(N)=N/O)C(c2ccccc2)c2ccc3ccccc3c2O1` (stereo not given), the GI50 (commonly the concentration that inhibits growth by half) in the assay on HOP-92 NSCLC was 579 nM; with HS 578T breast, 276 nM; in the assay on MALME-3M melanoma it was 2290 nM; with MOLT-4 leukemia it was 496 nM; in the assay with NCI-H226 lung, 8.01 µM; with NCI/ADR-RES ovarian, 57.8 nM. Moreover, the GI50 in the assay on SK-MEL-5 melanoma was 369 nM; in the assay with UACC-62 melanoma, 112 nM. Further, the concentration for total growth inhibition (TGI) (commonly the concentration giving total growth inhibition) in the assay on HOP-92 NSCLC is over 73.1 µM; in the assay with HS 578T breast, over 77.6 µM; in the assay with MALME-3M melanoma, over 76.1 µM; in the assay on MOLT-4 leukemia, over 100 µM; with NCI-H226 lung, 77.1 µM; with NCI/ADR-RES ovarian, 1.65 µM. Further, the TGI amounted to 9.79 µM in the assay with SK-MEL-5 melanoma and 15.2 µM with UACC-62 melanoma.

With `NCCNc1nc2ccc(F)cc2c2c(=O)c3cc(F)ccc3sc12`, the GI50 was 1020 nM with HOP-92 NSCLC; 3210 nM with HS 578T breast; 1910 nM in the assay on MALME-3M melanoma; 1770 nM with MDA-MB-435; 1940 nM with MOLT-4 leukemia; 1700 nM with NCI/ADR-RES ovarian. Also, the GI50 with SK-MEL-5 melanoma is 1680 nM; with T-47D breast, 1720 nM; with UACC-62 melanoma it was 1660 nM. For the same compound, the TGI stood at 4.6 µM in the assay with HOP-92 NSCLC; 18.4 µM in the assay on HS 578T breast; 4.28 µM with MALME-3M melanoma; 3.29 µM in the assay on MDA-MB-435; 3.92 µM in the assay on MOLT-4 leukemia; 3.33 µM with NCI/ADR-RES ovarian. Besides, the TGI was found to be 3.25 µM in the assay with SK-MEL-5 melanoma, 3.72 µM in the assay with T-47D breast and 3.06 µM in the assay with UACC-62 melanoma.

In the case of `CSc1ccc(NC(=O)CCl)cc1`, the TGI in the assay on HOP-92 NSCLC was 8.88 µM; in the assay on HS 578T breast it was over 10 µM; in the assay with MDA-MB-435, over 10 µM; with MOLT-4 leukemia it was over 10 µM; in the assay on NCI-H226 lung it was over 10 µM; in the assay with NCI/ADR-RES ovarian it was over 10 µM. Also, the TGI was 3.63 µM in the assay with SK-MEL-5 melanoma, over 10 µM in the assay with T-47D breast and 3.65 µM in the assay on UACC-62 melanoma.

As for `Nc1ccccc1-n1c2c(c3ccccc3c1=O)C(=O)c1ccccc1-2`, the TGI in the assay on HOP-92 NSCLC is 53.6 µM; in the assay with MALME-3M melanoma it was 85.5 µM; with MDA-MB-435, over 100 µM; with MOLT-4 leukemia it was over 100 µM; in the assay on NCI-H226 lung, over 100 µM; in the assay with NCI/ADR-RES ovarian, 51.3 µM. Moreover, the TGI in the assay on SK-MEL-5 melanoma and in the assay on UACC-62 melanoma was over 100 µM in each case.

On to `COc1ccc(-c2cncn2-c2ccc(-c3nc4cc(OC)c(OC)c(OC)c4s3)cc2)cc1N`, for which the GI50 in the assay with HS 578T breast is 28300 nM; in the assay on MALME-3M melanoma it was 2480 nM; with MDA-MB-435, 3130 nM; with MOLT-4 leukemia, 4000 nM; with NCI-H226 lung, 6.7 µM; in the assay on NCI/ADR-RES ovarian, 3120 nM. Further, the GI50 in the assay on SK-MEL-5 melanoma was 1730 nM; in the assay with T-47D breast, 3020 nM; with UACC-62 melanoma, 9040 nM. Moreover, the TGI was over 100 µM in the assay on HS 578T breast; 9.97 µM in the assay with MALME-3M melanoma; over 100 µM in the assay with MDA-MB-435; over 100 µM in the assay with MOLT-4 leukemia; over 100 µM in the assay with NCI-H226 lung; over 100 µM in the assay with NCI/ADR-RES ovarian. Further, the values for the TGI in the assay on SK-MEL-5 melanoma, in the assay on T-47D breast and in the assay with UACC-62 melanoma were 4.4 µM, over 100 µM and over 100 µM, respectively.

`COc1ncc(-c2ccc3ncnc(Nc4cccc(Cl)c4)c3c2)cc1NS(C)(=O)=O`: the GI50 was 472 nM with HOP-92 NSCLC; 852 nM with HS 578T breast; 2770 nM in the assay on MDA-MB-435; 1490 nM in the assay on MOLT-4 leukemia; 4.83 µM in the assay with NCI-H226 lung; 2380 nM in the assay with NCI/ADR-RES ovarian. Further, the GI50 in the assay on SK-MEL-5 melanoma is 1370 nM; with T-47D breast, 169 nM; with UACC-62 melanoma it was 1790 nM. The TGI stood at 5.28 µM in the assay with HOP-92 NSCLC; 9.52 µM in the assay with HS 578T breast; 17.3 µM in the assay on MDA-MB-435; 5.21 µM in the assay with MOLT-4 leukemia; 24.2 µM in the assay with NCI-H226 lung; 29.1 µM with NCI/ADR-RES ovarian. The TGI in the assay with SK-MEL-5 melanoma was 3.22 µM; in the assay on T-47D breast it was 1.33 µM; in the assay on UACC-62 melanoma it was 12.2 µM.

`COc1ccc(C(=O)c2cc(C)c(OC)c(C)c2)c(OC)c1OC(=O)C(Cl)Cl`: the GI50 in the assay on HOP-92 NSCLC is 216 nM; with HS 578T breast it was 29.4 nM; with MALME-3M melanoma, 71.4 nM; in the assay on MOLT-4 leukemia, 43.6 nM; in the assay with NCI-H226 lung, 2.41 µM; with NCI/ADR-RES ovarian, 32.4 nM. Further, the 50% growth inhibitory concentration (GI50) is 52.1 nM in the assay on SK-MEL-5 melanoma, 6370 nM in the assay on T-47D breast and 657 nM in the assay on UACC-62 melanoma. Also, the TGI was over 92.9 µM in the assay with HOP-92 NSCLC; 73.4 µM in the assay on HS 578T breast; over 100 µM in the assay on MALME-3M melanoma; over 100 µM in the assay with MOLT-4 leukemia; 7.03 µM in the assay with NCI-H226 lung; over 100 µM with NCI/ADR-RES ovarian. The TGI in the assay on SK-MEL-5 melanoma was 0.326 µM; in the assay with T-47D breast, over 100 µM; in the assay on UACC-62 melanoma, over 100 µM.

As for `CCCCCC/C=C\CCCCCCCCCc1cccc(OC)c1O`, the TGI in the assay with HS 578T breast, in the assay with MALME-3M melanoma, in the assay with MDA-MB-435, in the assay on MOLT-4 leukemia, in the assay on NCI-H226 lung and in the assay on NCI/ADR-RES ovarian was over 100 µM in each case. The concentration for total growth inhibition (TGI) in the assay with SK-MEL-5 melanoma, in the assay with T-47D breast and with UACC-62 melanoma was over 100 µM throughout.

With `CC(NNC(=S)N1CCN(c2ccccn2)CC1)c1cccc[n+]1[O-]` (stereo not given), the TGI in the assay on HOP-92 NSCLC is over 100 µM; in the assay with HS 578T breast it was over 100 µM; in the assay on MDA-MB-435, over 100 µM; in the assay with MOLT-4 leukemia, over 100 µM; in the assay with NCI-H226 lung, over 100 µM; with NCI/ADR-RES ovarian, 36.5 µM. Moreover, the figures for the TGI in the assay on SK-MEL-5 melanoma, in the assay on T-47D breast and in the assay on UACC-62 melanoma were 34.8 µM, over 100 µM and 22.8 µM, respectively.

Consider `C=CC(=O)N1CCC(CNc2ncnc(N)c2-c2ccc(Oc3ccccc3)cc2)CC1`, for which the GI50 in the assay with HOP-92 NSCLC was 18800 nM; in the assay with HS 578T breast, 24000 nM; in the assay on MALME-3M melanoma, 23900 nM; with MDA-MB-435, 27900 nM; with MOLT-4 leukemia, 18600 nM; in the assay on NCI-H226 lung, 19.5 µM. The GI50 in the assay on NCI/ADR-RES ovarian was 24600 nM; in the assay with SK-MEL-5 melanoma it was 14300 nM; in the assay on UACC-62 melanoma it was 16000 nM. Besides, the TGI in the assay on HOP-92 NSCLC came out at 65.1 µM; in the assay with HS 578T breast it was 95.2 µM; with MALME-3M melanoma it was 67 µM; in the assay with MDA-MB-435, 97.5 µM; in the assay on MOLT-4 leukemia, 66 µM; with NCI-H226 lung it was 85.1 µM. For the same compound, the concentration for total growth inhibition (TGI) with NCI/ADR-RES ovarian was 79.4 µM; in the assay with SK-MEL-5 melanoma, 27.6 µM; in the assay with UACC-62 melanoma, 34.8 µM.

In the case of `O=C(O)c1ccccc1C(=O)Nc1cc2c(cc1Br)-c1ccccc1C2=O`, the TGI in the assay with HOP-92 NSCLC, in the assay with HS 578T breast, in the assay on MALME-3M melanoma, in the assay on MDA-MB-435, in the assay with MOLT-4 leukemia and in the assay on NCI/ADR-RES ovarian was over 100 µM throughout. The TGI in the assay on SK-MEL-5 melanoma, in the assay on T-47D breast and with UACC-62 melanoma was over 100 µM in each case.

For the origin of these results see PubChem BioAssay (NCI).
